One experiment has as its system A549 cells. Kind of experiment: Proliferation Assay (A549 cell viability, Cell Titer Fluor). The class given is cell-based. Particulars: Homo sapiens, 72 hours. The method in brief: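 A549 cells seeded at 1000 cells/well, left 24 h, then exposed to compound for 72 h at 37 °C, 5% CO2, final DMSO 0.5% (v/v). Viability read by Cell Titer Fluor fluorescence; EC50 from four-parameter logistic fit.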

Experiment [1] deals with T1, purified recombinant human GAC (GLS1) (Homo sapiens, UniProt O94925).
T1 sequence (O94925 55-598 isoform O94925-3 limits assumed): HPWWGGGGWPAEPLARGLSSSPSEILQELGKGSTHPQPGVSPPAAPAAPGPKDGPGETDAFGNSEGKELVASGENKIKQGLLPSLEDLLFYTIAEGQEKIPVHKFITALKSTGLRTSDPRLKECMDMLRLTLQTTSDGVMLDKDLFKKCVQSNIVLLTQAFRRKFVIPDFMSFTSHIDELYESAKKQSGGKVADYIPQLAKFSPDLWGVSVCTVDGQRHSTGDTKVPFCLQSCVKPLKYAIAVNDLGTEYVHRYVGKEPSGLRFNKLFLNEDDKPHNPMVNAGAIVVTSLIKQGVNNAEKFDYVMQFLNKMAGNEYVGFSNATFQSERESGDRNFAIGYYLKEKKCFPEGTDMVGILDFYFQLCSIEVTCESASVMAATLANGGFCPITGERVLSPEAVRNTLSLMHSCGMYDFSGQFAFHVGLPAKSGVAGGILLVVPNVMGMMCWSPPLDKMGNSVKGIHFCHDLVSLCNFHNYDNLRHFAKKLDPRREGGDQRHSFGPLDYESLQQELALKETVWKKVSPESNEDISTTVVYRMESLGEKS
Kind of experiment: GLS1 Enzymatic Activity Assay (dual-coupled enzymatic assay). Format: biochemical. The method in brief:
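GAC activity measured by coupling glutamate to glutamate oxidase and HRP, generating resorufin from Amplex UltraRed. Enzyme (2 nM) preincubated with 50 mM potassium phosphate 10 min at room temperature, then inhibitor 10 min; 1 mM glutamine substrate, 1% DMSO. Fluorescence 530/590 nm, kinetic or 20-min endpoint; IC50 from four-parameter logistic fit.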

A word on the EC50: it is the concentration at which the effect is half-maximal. Read a high EC50 as a need for much substance. The IC50 is the concentration that inhibits the measured activity by half. In the experiment on A549 cells, `O=C(NCc1ccc(C(F)(F)F)cn1)c1cn(CCCCc2cc3cc(-c4ccccc4F)[nH]c3nn2)nn1` [Example 193, 1-(4-[6-(2-fluorophenyl)-7H-pyrrolo[2,3-c]pyridazin-3-yl]butyl}-N-{[5-(trifluoromethyl)pyridin-2-yl]methyl}-1H-1,2,3-triazole-4-carboxamide] registered an EC50 of 0.1 to 0.5 µM. In addition, the IC50 in experiment [1] was below 0.1 µM.

For the compound `CC(C)(C)OC(=O)N1CC(c2cc3cc(CCCCn4cc(C(=O)NCc5cc(C(F)(F)F)ccn5)nn4)nnc3[nH]2)C1` [Example 194, tert-butyl 3-(3-{4-[4-({[4-(trifluoromethyl)pyridin-2-yl]methyl}carbamoyl)-1H-1,2,3-triazol-1-yl]butyl}-7H-pyrrolo[2,3-c]pyridazin-6-yl)azetidine-1-carboxylate], the EC50 in the experiment with A549 cells was below 0.1 µM. The IC50 in experiment [1] was below 0.1 µM.

In turn, `O=C(NCc1cccc(OC(F)(F)F)c1)c1cn(CCCCc2cc3c(C4=CCOCC4)c(C4CC4)[nH]c3nn2)nn1` [Example 195, 1-{4-[6-cyclopropyl-5-(3,6-dihydro-2H-pyran-4-yl)-7H-pyrrolo[2,3-c]pyridazin-3-yl]butyl}-N-{[3-(trifluoromethoxy)phenyl]methyl}-1H-1,2,3-triazole-4-carboxamide] came in with an EC50 in the experiment on A549 cells below 0.1 µM. Besides, the IC50 in experiment [1] is below 0.1 µM.

`Cc1ccc(CNC(=O)c2cn(CCCCc3cc4c(C5=CCOCC5)c(C5CC5)[nH]c4nn3)nn2)cn1` [Example 196, 1-{4-[6-cyclopropyl-5-(3,6-dihydro-2H-pyran-4-yl)-7H-pyrrolo[2,3-c]pyridazin-3-yl]butyl}-N-[(6-mcthylpyridin-3-yl)methyl]-1H-1,2,3-triazole-4-carboxamide]: the EC50 in the experiment with A549 cells was 0.1 to 0.5 µM. Moreover, in experiment [1], the IC50 was below 0.1 µM.

Regarding `CC(C)(C)OC(=O)N1CC=C(c2c(C3CC3)[nH]c3nnc(CCCCn4cc(C(=O)NCc5cccc(OC(F)(F)F)c5)nn4)cc23)CC1` [Example 197, tert-butyl 4-(6-cyclopropyl-3-{4-[4-({[3-(trifluoromethoxy)phenyl]methyl}carbamoyl)-1H-1,2,3-triazol-1-yl]butyl}-7H-pyrrolo[2,3-c]pyridazin-5-yl)-1,2,3,6-tetrahydropyridine-1-carboxylate], the EC50 in the experiment with A549 cells was below 0.1 µM. Also, the IC50 in experiment [1] was below 0.1 µM.

Compound `Cc1ccc(CNC(=O)c2cn(CCCCc3cc4c(C5=CCN(C(=O)OC(C)(C)C)CC5)c(C5CC5)[nH]c4nn3)nn2)cn1` [Example 198, tert-butyl 4-(6-cyclopropyl-3-[4-(4-{[(6-methylpyridin-3-yl)methyl]carbamoyl}-1H-1,2,3-triazol-1-yl)butyl]-7H-pyrrolo[2,3-c]pyridazin-5-yl}-1,2,3,6-tetrahydropyridine-1-carboxylate] returned an EC50 in the experiment on A549 cells of 0.5 to 5 µM. Moreover, in experiment [1], the IC50 is below 0.1 µM.

For `CC(C)OC(=O)N1CC(c2cc3cc(CCCCn4cc(C(=O)NCc5cc(C(F)(F)F)ccn5)nn4)nnc3[nH]2)C1` [Example 200, propan-2-yl 3-(3-{4-[4-({[4-(trifluoromethyl)pyridin-2-yl]methyl}carbamoyl)-1H-1,2,3-triazol-1-yl]butyl}-7H-pyrrolo[2,3-c]pyridazin-6-yl)azetidine-1-carboxylate], the EC50 in the experiment with A549 cells is 0.1 to 0.5 µM. Besides, the IC50 in experiment [1] was below 0.1 µM.

Take `CC(C)(C)OC(=O)N1CC(c2cc3cc(CCCCn4cc(C(=O)NCc5ccc(C(F)(F)F)cn5)nn4)nnc3[nH]2)C1` [Example 201, tert-butyl 3-(3-{4-[4-({[5-(trifluoromethyl)pyridin-2-yl]methyl)carbamoyl)-1H-1,2,3-triazol-1-yl]butyl}-7H-pyrrolo[2,3-c]pyridazin-6-yl)azetidine-1-carboxylate]: the EC50 with A549 cells lay in the range of 0.1 to 0.5 µM. Moreover, the IC50 in experiment [1] was below 0.1 µM.

`Cc1ccc(CNC(=O)c2cn(CCCCc3cc4cc(-c5cccc(F)c5)[nH]c4nn3)nn2)cn1` [Example 202, 1-{4-[6-(3-fluorophenyl)-7H-pyrrolo[2,3-c]pyridazin-3-yl]butyl}-N-[(6-methylpyridin-3-yl)methyl]-1H-1,2,3-triazole-4-carboxamide] came in with an EC50 with A549 cells of 0.1 to 0.5 µM. In addition, the IC50 in experiment [1] is below 0.1 µM.

In turn, `Cc1ccc(CNC(=O)c2cn(CCCCc3cc4cc(-c5cccc(C(F)(F)F)c5)[nH]c4nn3)nn2)cn1` [Example 203, N-[(6-methylpyridin-3-yl)methyl]-1-(4-{6-[3-(trifluoromethyl)phenyl]-7H-pyrrolo[2,3-c]pyridazin-3-yl}butyl)-1H-1,2,3-triazole-4-carboxamide] returned an EC50 in the experiment with A549 cells of 0.1 to 0.5 µM. For the same compound, the IC50 in experiment [1] was below 0.1 µM.

With `O=C(NCc1cccc(OC(F)(F)F)c1)c1cn(CCCCc2cc3cc(-c4ccccc4F)[nH]c3nn2)nn1` [Example 204, 1-{4-[6-(2-fluorophenyl)-7H-pyrrolo[2,3-c]pyridazin-3-yl]butyl}-N-{[3-(trifluoromethoxy)phenyl]methyl}-1H-1,2,3-triazole-4-carboxamide], the EC50 in the experiment on A549 cells lay within 0.5 to 5 µM. In addition, in experiment [1], the IC50 was below 0.1 µM.

`O=C(NCc1cc(OC(F)(F)F)ccc1F)c1cn(CCCCc2cc3cc(-c4ccccc4F)[nH]c3nn2)nn1` [Example 205, N-{[2-fluoro-5-(trifluoromethoxy)phenyl]methyl}-1-(4-[6-(2-fluorophenyl)-7H-pyrrolo[2,3-c]pyridazin-3-yl]butyl)-1H-1,2,3-triazole-4-carboxamide] returned an EC50 with A549 cells of 0.1 to 0.5 µM. For the same compound, the IC50 in experiment [1] was below 0.1 µM.

`CC(C)OC(=O)N1CC(c2cc3cc(CCCCn4cc(C(=O)NCc5ccc(C(F)(F)F)cn5)nn4)nnc3[nH]2)C1` [Example 206, propan-2-yl 3-(3-{4-[4-({[5-(trifluoromethyl)pyridin-2-yl]methyl}carbamoyl)-1H-1,2,3-triazol-1-yl]butyl}-7H-pyrrolo[2,3-c]pyridazin-6-yl)azetidine-1-carboxylate] came in with a half-maximal effective concentration (EC50) with A549 cells of 0.1 to 0.5 µM. Besides, the IC50 in experiment [1] was below 0.1 µM.

`O=C(NCc1ccc(C(F)(F)F)nc1)c1cn(CCCCc2cc3c(C4CC4)c(C4CC4)[nH]c3nn2)nn1` [Example 207, 1-(4-{5,6-dicyclopropyl-7H-pyrrolo[2,3-c]pyridazin-3-yl}butyl)-N-{[6-(trifluoromethyl)pyridin-3-yl]methyl}-1H-1,2,3-triazole-4-carboxamide]: in the experiment with A549 cells, the EC50 was 0.1 to 0.5 µM. Also, the IC50 in experiment [1] is below 0.1 µM.

`O=C(NCc1ccc(C(F)(F)F)cn1)c1cn(CCCCc2cc3c(C4CC4)c(C4CC4)[nH]c3nn2)nn1` [Example 208, 1-(4-{5,6-dicyclopropyl-7H-pyrrolo[2,3-c]pyridazin-3-yl}butyl)-N-{[5-(trifluoromethyl)pyridin-2-yl]methyl}-1H-1,2,3-triazole-4-carboxamide] displayed an EC50 in the experiment with A549 cells of 0.1 to 0.5 µM. Also, the IC50 in experiment [1] is below 0.1 µM.

As for `Cc1ccc(CNC(=O)c2cn(CCCCc3cc4cc(-c5ccccc5)[nH]c4nn3)nn2)cn1` [Example 209, N-[(6-methylpyridin-3-yl)methyl]-1-(4-{6-phenyl-7H-pyrrolo[2,3-c]pyridazin-3-yl}butyl)-1H-1,2,3-triazole-4-carboxamide], the EC50 in the experiment with A549 cells lay within 0.1 to 0.5 µM. Also, the IC50 in experiment [1] is below 0.1 µM.

Compound `O=C(NCc1cc(C(F)(F)F)ccn1)c1cn(CCCCc2cc3c(C4CC4)c(C4CC4)[nH]c3nn2)nn1` [Example 210, 1-(4-{5,6-dicyclopropyl-7H-pyrrolo[2,3-c]pyridazin-3-yl}butyl)-N-{[4-(trifluoromethyl)pyridin-2-yl]methyl}-1H-1,2,3-triazole-4-carboxamide] came in with an EC50 with A549 cells of 0.1 to 0.5 µM. Also, the half-maximal inhibitory concentration (IC50) in experiment [1] was below 0.1 µM.

`O=C(NCc1cccc(C(F)(F)F)n1)c1cn(CCCCc2cc3c(C4CC4)c(C4CC4)[nH]c3nn2)nn1` [Example 211, 1-(4-{5,6-dicyclopropyl-7H-pyrrolo[2,3-c]pyridazin-3-yl}butyl)-N-{[6-(trifluoromethyl)pyridin-2-yl]methyl}-1H-1,2,3-triazole-4-carboxamide] came in with an EC50 with A549 cells of 0.1 to 0.5 µM. Moreover, the IC50 in experiment [1] is below 0.1 µM.

For the compound `O=C(NCc1cncc(C(F)(F)F)c1)c1cn(CCCCc2cc3c(C4CC4)c(C4CC4)[nH]c3nn2)nn1` [Example 212, 1-(4-{5,6-dicyclopropyl-7H-pyrrolo[2,3-c]pyridazin-3-yl}butyl)-N-{[5-(trifluoromethyl)pyridin-3-yl]methyl}-1H-1,2,3-triazole-4-carboxamide], in the experiment with A549 cells, the EC50 lay in the range of 0.1 to 0.5 µM. The IC50 in experiment [1] is below 0.1 µM.

`CC(C)(O)c1ccc(CNC(=O)c2cn(CCCCc3cc4c(C5CC5)c(C5CC5)[nH]c4nn3)nn2)cn1` [Example 213, 1-(4-{5,6-dicyclopropyl-7H-pyrrolo[2,3-c]pyridazin-3-yl}butyl)-N-{[6-(2-hydroxypropan-2-yl)pyridin-3-yl]methyl}-1H-1,2,3-triazole-4-carboxamide]: the EC50 with A549 cells fell in the range of 0.1 to 0.5 µM. The IC50 in experiment [1] is below 0.1 µM.

As to `O=C(NCc1ccc(CF)nc1)c1cn(CCCCc2cc3c(C4CC4)c(C4CC4)[nH]c3nn2)nn1` [Example 214, 1-(4-{5,6-dicyclopropyl-7H-pyrrolo[2,3-c]pyridazin-3-yl}butyl)-N-{[6-(fluoromethyl)pyridin-3-yl]methyl}-1H-1,2,3-triazole-4-carboxamide], in the experiment on A549 cells, the EC50 lay within 0.1 to 0.5 µM. In experiment [1], the IC50 is below 0.1 µM.
